According to ChEMBL document CHEMBL5149998, “Synthetic access to thiolane-based therapeutics and biological activity studies” (Eur J Med Chem, 2021):
Converted amounts (≈) assume the structure as drawn.

Columns and labels:
B16 [1] = experiment: Antitumor activity against mouse B16 cells implanted in mouse assessed as inhibition of lung tumor formation at 5 mg/kg, po measured after 10 days relative to control; assay type: functional; set-up: scale not given: the % may be the effect or the level left; settings: time 10 day
U-937 = experiment: Anticancer activity against human U-937 cells assessed as cell growth inhibition; assay type: functional, cell-based
B16 [2] = experiment: Anticancer activity against mouse B16 cells assessed as cell growth inhibition; assay type: functional, cell-based
Enterococcus = experiment: Antibacterial activity against vancomycin resistant Enterococcus incubated for 24 hrs by broth microdilution method; assay type: functional
Histoplasma capsulatum = experiment: Antifungal activity against Histoplasma capsulatum; assay type: functional
Blastomyces dermatitidis = experiment: Antifungal activity against Blastomyces dermatitidis; assay type: functional
Staphylococcus aureus = experiment: Antibacterial activity against methicillin resistant Staphylococcus aureus incubated for 24 hrs by broth microdilution method; assay type: functional
[3] = target: Prostaglandin G/H synthase 1 (Homo sapiens, UniProt P23219); experiment: Inhibition of COX-1 (unknown origin) using arachidonic acid as substrate assessed as PGH2 level preincubated for 5 mins followed by substrate addition and measured after 1 min by UHPLC-MS/MS analysis
Sequence of Prostaglandin G/H synthase 1 (P23219 whole entry): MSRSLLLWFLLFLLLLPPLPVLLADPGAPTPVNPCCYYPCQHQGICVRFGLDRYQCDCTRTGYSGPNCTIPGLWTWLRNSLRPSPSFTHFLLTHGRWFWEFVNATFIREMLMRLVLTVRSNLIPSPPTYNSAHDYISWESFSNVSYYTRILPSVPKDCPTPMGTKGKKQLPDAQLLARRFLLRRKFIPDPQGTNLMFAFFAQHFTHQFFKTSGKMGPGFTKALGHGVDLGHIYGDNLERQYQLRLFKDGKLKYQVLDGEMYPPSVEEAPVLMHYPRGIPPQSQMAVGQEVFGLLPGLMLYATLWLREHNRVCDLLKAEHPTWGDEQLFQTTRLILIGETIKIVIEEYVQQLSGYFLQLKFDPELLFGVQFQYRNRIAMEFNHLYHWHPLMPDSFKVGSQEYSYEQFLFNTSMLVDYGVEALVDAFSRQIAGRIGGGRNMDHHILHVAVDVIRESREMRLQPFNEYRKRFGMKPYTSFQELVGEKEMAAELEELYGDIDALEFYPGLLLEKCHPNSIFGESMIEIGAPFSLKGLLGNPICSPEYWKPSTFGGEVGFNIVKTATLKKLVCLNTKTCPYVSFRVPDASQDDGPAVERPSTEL

[4] = Inhibition of Saccharomyces alpha-glucosidase using p-nitrophenyl-alpha-D-glucopyranoside as substrate assessed as substrate hydrolysis incubated for 15 mins by spectrophotometer analysis; set-up: species or system Saccharomyces sp.
Jurkat = experiment: Anticancer activity against human Jurkat T cells assessed as cell growth inhibition; assay type: functional, cell-based
HT-29 = experiment: Anticancer activity against human HT-29 cells assessed as cell growth inhibition; assay type: functional, cell-based

With `C[C@@H]1CC[C@@H](c2ccoc2)N2C[C@@]3(CC[C@@H]12)CS[C@@]1(CC[C@H]2[C@H](C)CC[C@@H](c4ccoc4)N2[C@@H]1O)C3` the Activity (B16 [1]) was >90%, the IC50 (U-937) was 5000 nM and the IC50 (B16 [2]) was 29 nM.
For `C[C@@H]1CC[C@@H](c2ccoc2)N2[C@H]1CC[C@@]1(CS[C@@]3(CC[C@H]4[C@H](C)CC[C@@H](c5ccoc5)N4[C@@H]3O)C1)[C@H]2O`, the MIC (Enterococcus) was 2 µg/mL (≈ 3.8 µM), the IC50 (U-937) was 5000 nM and the Activity (Histoplasma capsulatum) was 100 µg/mL. It also gave an Activity (Blastomyces dermatitidis) of 100 µg/mL, an IC50 (B16 [2]) of 87 nM and an MIC (Staphylococcus aureus) of 1 µg/mL (≈ 1.9 µM).
With `C[C@@H]1CC[C@@H](c2ccoc2)N2[C@H]1CC[C@@]1(CS[C@]3(CC[C@H]4[C@H](C)CC[C@@H](c5ccoc5)N4[C@@H]3O)C1)[C@H]2O` the IC50 (U-937) was 2500 nM.
`C[C@H]1CC[C@H](c2ccccc2)N2[C@@H]1CC[C@](C)(Sc1ccccc1)[C@@H]2O` gave an IC50 (U-937) of 5000 nM.
Compound `C/C=C/[S+]([O-])SC1SC(O)C(C)C1C` (centres undefined) has an IC50 [3] of 52 nM and an IC50 [4] of 710 nM.
Compound `C[C@H]1CC[C@H](c2ccoc2)N2[C@@H]1CC[C@]1(CS[C@]3(CC[C@@H]4[C@@H](C)CC[C@H](c5ccoc5)N4[C@H]3O)C1)[C@@H]2O` has an IC50 (U-937) of 5000 nM.
In the case of `C[C@@H]1CC[C@@H](c2ccoc2)N2[C@H]1CC[C@]1(CS[C@@]3(CC[C@H]4[C@H](C)CC[C@@H](c5ccoc5)N4[C@@H]3O)C1)[C@H]2O`, the IC50 (U-937) is reported as 2500 nM.
For `CC1CCC(c2ccoc2)N2C1CCC1(CSC3(CCC4C(C)CCC(c5ccoc5)N4C3O)C1)C2O` (centres undefined), the EC50 (Jurkat) was 263 nM and the EC50 (HT-29) was 547 nM.
Work on `C[C@H]1CC[C@H](c2ccccc2)N2[C@@H]1CC[C@@](C)(Sc1ccccc1)[C@@H]2O` yielded an IC50 (U-937) of 2500 nM.
With `C[C@H]1CC[C@H](c2ccoc2)N2[C@@H]1CC[C@]1(CS[C@@]3(CC[C@@H]4[C@@H](C)CC[C@H](c5ccoc5)N4[C@H]3O)C1)[C@@H]2O` the IC50 (U-937) was 5000 nM.
Compound `CS[C@@]1(C)CC[C@@H]2[C@@H](C)CC[C@H](c3ccc(F)cc3)N2[C@H]1O` has an IC50 (U-937) of 5000 nM.
For `C=CC[C@]1(SC)CC[C@@H]2[C@@H](C)CC[C@H](c3ccc(F)cc3)N2[C@H]1O`, the IC50 (U-937) was 5000 nM.
Work on `C#CC[C@]1(SC)CC[C@@H]2[C@@H](C)CC[C@H](c3ccccc3)N2[C@H]1O` yielded an IC50 (U-937) of 2500 nM.
Compound `FC(F)(F)c1ccc(C[N+]2=CC3(CCC2)CSC2(C=[N+](Cc4ccc(C(F)(F)F)cc4)CCC2)C3)cc1` (centres undefined) has an EC50 (Jurkat) of 1800 nM and an EC50 (HT-29) of 2400 nM.
In the case of `CS[C@]1(C)CC[C@@H]2[C@@H](C)CC[C@H](c3ccccc3)N2[C@H]1O`, the IC50 (U-937) is reported as 625 nM.
`C[C@H]1CC[C@H](c2ccoc2)N2[C@@H]1CC[C@@]1(CS[C@]3(CC[C@@H]4[C@@H](C)CC[C@H](c5ccoc5)N4[C@H]3O)C1)[C@@H]2O` gave an IC50 (U-937) of 2500 nM.
For `C[C@@H]1CC[C@@H](c2ccccc2)N2[C@@H](O)[C@@](C)(Sc3ccccc3)CC[C@@H]12`, the IC50 (U-937) was 2500 nM.
In the case of `COc1ccc([C@H]2CC[C@H](C)[C@H]3CCC(SC)(SC)[C@H](O)N23)cc1`, the IC50 (U-937) is reported as 5000 nM.
For `CSC1(SC)CC[C@H]2[C@H](C)CC[C@@H](c3ccccc3)N2[C@@H]1O`, the IC50 (U-937) was 10000 nM.
`CS[C@@]1(C)CC[C@@H]2[C@@H](C)CC[C@H](c3ccccc3)N2[C@H]1O` showed an IC50 (U-937) of 5000 nM.
Work on `CS[C@]1(C)CC[C@@H]2[C@@H](C)CC[C@H](c3ccc(F)cc3)N2[C@H]1O` yielded an IC50 (U-937) of 1250 nM.
`CSC1(SC)CC[C@@H]2[C@@H](C)CC[C@H](c3ccc(F)cc3)N2[C@H]1O` showed an IC50 (U-937) of 5000 nM.
Work on `C1=[N+](CCCCc2ccccc2)CCCC12CCC2` yielded an EC50 (Jurkat) of 9600 nM and an EC50 (HT-29) of 43000 nM.
For `C[C@H]1CC[C@H](c2ccoc2)N2C[C@]3(CC[C@H]12)CS[C@]1(CC[C@@H]2[C@@H](C)CC[C@H](c4ccoc4)N2[C@H]1O)C3`, the IC50 (U-937) was 5000 nM.
With `C1=[N+](CCCCc2ccccc2)CCCC12CCCO2` (centres undefined) the EC50 (Jurkat) was 38000 nM and the EC50 (HT-29) was 87000 nM.
Work on `C1=[N+](Cc2ccccc2)CCCC12CSC1(C=[N+](Cc3ccccc3)CCC1)C2` (centres undefined) yielded an EC50 (Jurkat) of 1600 nM and an EC50 (HT-29) of 2300 nM.
Compound `C#CC[C@@]1(SC)CC[C@@H]2[C@@H](C)CC[C@H](c3ccccc3)N2[C@H]1O` has an IC50 (U-937) of 2500 nM.
Work on `COc1ccc([C@H]2CC[C@H](C)[C@H]3CC[C@@](C)(SC)[C@H](O)N23)cc1` yielded an IC50 (U-937) of 1250 nM.
Compound `COc1ccc([C@H]2CC[C@H](C)[C@H]3CC[C@](C)(SC)[C@H](O)N23)cc1` has an IC50 (U-937) of 5000 nM.
In the case of `C[C@@H]1CC[C@@H](c2ccoc2)N2[C@H]1CC[C@]1(CS[C@]3(CC[C@H]4[C@H](C)CC[C@@H](c5ccoc5)N4[C@@H]3O)C1)[C@H]2O`, the IC50 (U-937) is reported as 1250 nM.
`CSC1(SC)CC[C@@H]2[C@@H](C)CC[C@H](c3ccccc3)N2[C@H]1O` gave an IC50 (U-937) of 1250 nM.
Compound `C1=[N+](CCCCc2ccccc2)CCCC12CCCS2` (centres undefined) has an EC50 (Jurkat) of 6300 nM and an EC50 (HT-29) of 12000 nM.
With `C=C1C=[N+](CCCCc2ccccc2)CCC1` the EC50 (Jurkat) was 17000 nM and the EC50 (HT-29) was 45000 nM.
Compound `C1=[N+](CCCCc2ccccc2)CCCC12CSC1(C=[N+](CCCCc3ccccc3)CCC1)C2` (centres undefined) has an EC50 (Jurkat) of 1200 nM and an EC50 (HT-29) of 2100 nM.
For `COc1ccc(C[N+]2=CC3(CCC2)CSC2(C=[N+](Cc4ccc(OC)cc4)CCC2)C3)cc1` (centres undefined), the EC50 (Jurkat) was 1800 nM and the EC50 (HT-29) was 2800 nM.
`C[C@H]1CC[C@H](c2ccoc2)N2[C@@H]1CC[C@@]1(CS[C@@]3(CC[C@@H]4[C@@H](C)CC[C@H](c5ccoc5)N4[C@H]3O)C1)[C@@H]2O` showed an IC50 (U-937) of 2500 nM.
`CSC1(SC)CCC2C(C)CCC(c3ccccc3)N2C1O` (racemic) gave an IC50 (U-937) of 5000 nM.
`CC1CCC(c2ccccc2)N2C1CCC(C)(Sc1ccccc1)C2O` (racemic) showed an IC50 (U-937) of 5000 nM.
`C#CCC1(SC)CCC2C(C)CCC(c3ccccc3)N2C1O` (racemic) gave an IC50 (U-937) of 5000 nM.
For `CSC1(C)CCC2C(C)CCC(c3ccccc3)N2C1O` (racemic), the IC50 (U-937) was 3000 nM.
For `C[C@@H]1CC[C@@H](c2ccoc2)N2C[C@@]3(CC[C@@H]12)CS[C@]1(CC[C@H]2[C@H](C)CC[C@@H](c4ccoc4)N2[C@@H]1O)C3` [6-HYDROXYTHIONUPHLUTINE B], the IC50 (B16 [2]) was 360 nM.
`NCC[C@H](O)C(=O)N[C@@H]1C[C@H](N)[C@@H](O[C@H]2O[C@H](CN)CC[C@H]2N)[C@H](O)[C@H]1O[C@H]1O[C@H](CO)[C@@H](O)[C@H](N)[C@H]1O` [ARBEKACIN] gave an MIC (Staphylococcus aureus) of 0.5 µg/mL (≈ 0.905 µM).
In the case of `CC(=O)NC[C@H]1CN(c2ccc(N3CCOCC3)c(F)c2)C(=O)O1` [LINEZOLID], the MIC (Staphylococcus aureus) is reported as 1 µg/mL (≈ 2.96 µM).
`CCn1cc(C(=O)O)c(=O)c2cc(F)c(N3CCNCC3)cc21` [NORFLOXACIN] gave an MIC (Enterococcus) of 4 µg/mL (≈ 12.5 µM) and an MIC (Staphylococcus aureus) of 0.5 µg/mL (≈ 1.57 µM).
`Cc1onc(-c2ccccc2)c1C(=O)N[C@@H]1C(=O)N2[C@@H]1SC(C)(C)[C@@H]2C(=O)O` [OXACILLIN] gave an MIC (Staphylococcus aureus) of 0.06 µg/mL (≈ 0.149 µM).
`CN[C@H](CC(C)C)C(=O)N[C@H]1C(=O)N[C@@H](CC(N)=O)C(=O)N[C@H]2C(=O)N[C@H]3C(=O)N[C@H](C(=O)N[C@H](C(=O)O)c4cc(O)cc(O)c4-c4cc3ccc4O)[C@H](O)c3ccc(c(Cl)c3)Oc3cc2cc(c3O[C@@H]2O[C@H](CO)[C@@H](O)[C@H](O)[C@H]2O[C@H]2C[C@](C)(N)[C@H](O)[C@H](C)O2)Oc2ccc(cc2Cl)[C@H]1O` [VANCOMYCIN] showed an MIC (Enterococcus) of 0.5 µg/mL (≈ 0.345 µM).
